Source: patent publication US20200368198A1, “METHODS FOR INCREASING FERTILITY” (NEWSOUTH INNOVATIONS PTY LIMITED, priority 2017, published 2020)
“And” between values parts separate entries of the source, which are not always exact repeats. Identical values can stand only once.

How the values were obtained:
C57BL6 female mice [1] = experiment: Cumulus oocyte complex yield after PMSG, cisplatin with or without NMN; assay type: in vivo; details: per mouse, single dose cisplatin 5 mg/kg i.p. and/or NMN 2 g/L drinking water, two months later
Experimental: To assess oocyte yield, and mice were hormonally stimulated to superovulated by intraperitoneal injection with 7.5 IU/mL of Pregnant Mare's Serum Gonadotropin (PMSG) (Folligon; Intervet, Boxmeer, Holland) to stimulate follicular growth. After 44-46 hours, ovaries were collected in HEPES-buffered minimum essential medium (aMEM; Gibco Life Technologies, Grand Island, N.Y.) supplemented with 50 µM of 3-isobuty-1-methylxanthine (IBMX) (Sigma aldrich, NSW, AU) (M2 medium) to maintain meitotic arrest at germinal vesicle stage. Cumulus oocyte complexes (COCs) were isolated from preovulatory follicles using a 27-gauge needle and collected using flame-pulled borosilicate Pasteur pipettes in M2 medium supplemented with 3 mg/ml bovine serum albumin (BSA; Sigma Aldrich, St. Louis, Mo.) and 100 μM IBMX (Sigma Aldrich). Cumulus oocyte complexes (COCs) were mechanically denuded of cumulus cells by pipetting, and the denuded oocytes were transferred to another dish containing a drop of fresh M2-medium plus IBMX on heat block with 37° C. with lid to protect oocytes from light. […]

oocytes [2] = experiment: Meiotic progression (GVBD, PBE) of harvested oocytes, cisplatin with or without NMN; assay type: in vivo, mice; details: cisplatin and/or NMN
Experimental: Once harvested from ovaries, oocytes were stored in IBMX media to prevent progression into meiosis. Once released from IBMX, meiotic progression was assessed by the proportions of oocytes achieving germinal vesicle breakdown (GVBD) for meiosis I, and polar body extrusion (PBE) for meiosis II, with results shown in FIGS. 7 and 8 and Tables 2 and 3.
Again, as in Example 2 above, the oocytes which were harvested from these studies were allowed to progress down meiosis, in order to assess meiotic progression rates (FIGS. 16 and 17 and Table 7 and 8).

C57BL6 females [3] = experiment: Reversal design: oocyte yield, cisplatin followed by NMN 4 weeks later; assay type: in vivo, mice; details: cisplatin 5 mg/kg i.p., per mouse
Experimental: To assess oocyte yield, and mice were hormonally stimulated to superovulated by intraperitoneal injection with 7.5 IU/mL of Pregnant Mare's Serum Gonadotropin (PMSG) (Folligon; Intervet, Boxmeer, Holland) to stimulate follicular growth. After 44-46 hours, ovaries were collected in HEPES-buffered minimum essential medium (aMEM; Gibco Life Technologies, Grand Island, N.Y.) supplemented with 50 µM of 3-isobuty-1-methylxanthine (IBMX) (Sigma aldrich, NSW, AU) (M2 medium) to maintain meitotic arrest at germinal vesicle stage. Cumulus oocyte complexes (COCs) were isolated from preovulatory follicles using a 27-gauge needle and collected using flame-pulled borosilicate Pasteur pipettes in M2 medium supplemented with 3 mg/ml bovine serum albumin (BSA; Sigma Aldrich, St. Louis, Mo.) and 100 μM IBMX (Sigma Aldrich). Cumulus oocyte complexes (COCs) were mechanically denuded of cumulus cells by pipetting, and the denuded oocytes were transferred to another dish containing a drop of fresh M2-medium plus IBMX on heat block with 37° C. with lid to protect oocytes from light.
Next, we decided to investigate whether NMN treatment delivered some time following chemotherapy treatment could actively reverse chemotherapy induced infertility. […]

CD38 = biological target: T1, CD38 (Homo sapiens, UniProt P28907); details: in vitro; cited from earlier work
T1 sequence (P28907 1-300): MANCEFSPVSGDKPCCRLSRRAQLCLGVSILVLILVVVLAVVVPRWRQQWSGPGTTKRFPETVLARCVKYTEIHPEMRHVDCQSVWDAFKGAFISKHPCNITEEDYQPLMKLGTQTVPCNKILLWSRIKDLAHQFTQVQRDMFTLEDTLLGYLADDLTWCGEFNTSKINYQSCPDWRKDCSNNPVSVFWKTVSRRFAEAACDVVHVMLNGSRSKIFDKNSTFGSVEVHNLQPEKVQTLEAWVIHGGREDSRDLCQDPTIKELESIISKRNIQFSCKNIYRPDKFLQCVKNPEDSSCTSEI

[4] = biological target: NADH:quinone oxidoreductase (NQ01) (Homo sapiens, UniProt P15559); details: cited from earlier work
C57BL6 female mice [5] = experiment: Cumulus oocyte complex yield after PMSG superovulation, doxorubicin with or without NMN; assay type: in vivo; details: per mouse, single dose doxorubicin 10 mg/kg i.p. and/or NMN 2 g/L drinking water, 2 months post doxorubicin
Experimental: To assess oocyte yield, and mice were hormonally stimulated to superovulated by intraperitoneal injection with 7.5 IU/mL of Pregnant Mare's Serum Gonadotropin (PMSG) (Folligon; Intervet, Boxmeer, Holland) to stimulate follicular growth. After 44-46 hours, ovaries were collected in HEPES-buffered minimum essential medium (aMEM; […] Sigma Aldrich, St. Louis, Mo.) and 100 μM IBMX (Sigma Aldrich). […] NMN was delivered through addition to drinking water at 2 g/L, for a final dose of approximately 165 mg/kg. Administration of NMN began one day prior to doxorubicin administration. […] Ovaries were then punctured to release MI oocytes. In a separate cohort of animals, the same experiment was repeated using animals treated with the platinum based chemotherapy drug cisplatin. In FIG. 6 and Table 1, numbers of cumulus oocyte complexes are listed.

oocytes [6] = experiment: Meiotic progression (GVBD, PBE) of harvested oocytes, doxorubicin with or without NMN; assay type: in vivo, mice; details: doxorubicin and/or NMN
Excerpt: Once harvested from ovaries, oocytes were stored in IBMX media to prevent progression into meiosis.

C57BL6 female mice [7] = experiment: Mating trial after doxorubicin with or without NMN co-treatment; assay type: in vivo; details: for Number of mating rounds required to achieve pregnancy: the values are: cumulative % of females pregnant by round
Experimental: Following oocyte counting and analysis of oocyte meiotic progression, as well as a separate cohort of animals for histological ovarian analysis, a separate cohort of animals were treated as indicated, and mated with stud males of proven track record, to assess the ability of animals to deliver live births following chemotherapy treatment in the presence of absence of NMN co-treatment.

[8] = test system: wild-type and NMNAT1-Tg female mice; experiment: Oocyte yield following doxorubicin in wild-type or NMNAT1-Tg mice; assay type: in vivo; details: 10 mg/kg i.p., two months later, PMSG, per mouse
Experimental: As in Example 2, 7 week-old female wild-type (“WT”) control or their littermates overexpressing NMNAT1 (“NMNAT1-Tg”) were treated with doxorubicin (10 mg/kg, i.p. injection). […] Two months later, animals were super-ovulated with PMSG, euthanased, and ovaries punctured to release MI oocytes, which were counted (FIG. 18 and Table 9).

C57BL6 females [9] = experiment: Reversal design: primordial follicle counts in ovarian histology sections; assay type: in vivo, mice; details: doxorubicin 10 mg/kg i.p., NMN in drinking water started four weeks later for 4 weeks; per mouse
Excerpt: Ovaries were dissected from freshly euthanased animals, and preserved in 10% neutral buffered formalin for 24 hr, followed by 70% ethanol, until embedding in paraffin blocks. Blocks were sectioned on a microtome and subjected to haematoxylin and eosin (H&E) staining. Primordial follicles were manually counted by a blinded investigator.
Next, we decided to investigate whether NMN treatment delivered some time following chemotherapy treatment could actively reverse chemotherapy induced infertility. […] Four weeks later, they received NMN in their drinking water, for another 4 weeks, prior to being euthanased for either oocyte studies or ovarian histological analysis. The rationale of this experimental design is to investigate whether NMN has the ability to induce regeneration of the ovary. According to the standard dogma of reproductive biology, mammals are born with a set number of follicles which are slowly released as oocytes over the course of a lifetime, with the ovaries incapable of regenerating new follicles.

NAMPT = NAMPT (Homo sapiens, UniProt P43490); details: in vitro; cited from earlier work
NAMPT, sequence (P43490 whole entry, species assumed): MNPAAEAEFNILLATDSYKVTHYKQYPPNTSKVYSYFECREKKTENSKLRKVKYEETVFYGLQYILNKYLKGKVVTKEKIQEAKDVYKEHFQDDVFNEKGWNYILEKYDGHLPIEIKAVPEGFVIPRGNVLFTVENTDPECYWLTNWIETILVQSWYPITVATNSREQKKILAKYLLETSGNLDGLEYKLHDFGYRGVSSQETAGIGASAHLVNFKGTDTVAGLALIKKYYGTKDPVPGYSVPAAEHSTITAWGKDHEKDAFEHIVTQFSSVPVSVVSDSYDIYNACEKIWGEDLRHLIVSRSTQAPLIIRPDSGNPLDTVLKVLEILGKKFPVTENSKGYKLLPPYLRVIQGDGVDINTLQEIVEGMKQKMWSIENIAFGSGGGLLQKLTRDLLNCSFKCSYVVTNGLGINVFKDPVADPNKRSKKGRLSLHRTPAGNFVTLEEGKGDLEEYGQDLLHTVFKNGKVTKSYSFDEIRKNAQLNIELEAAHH

NADH:quinone oxidoreductase (NQ01), sequence (P15559 whole entry): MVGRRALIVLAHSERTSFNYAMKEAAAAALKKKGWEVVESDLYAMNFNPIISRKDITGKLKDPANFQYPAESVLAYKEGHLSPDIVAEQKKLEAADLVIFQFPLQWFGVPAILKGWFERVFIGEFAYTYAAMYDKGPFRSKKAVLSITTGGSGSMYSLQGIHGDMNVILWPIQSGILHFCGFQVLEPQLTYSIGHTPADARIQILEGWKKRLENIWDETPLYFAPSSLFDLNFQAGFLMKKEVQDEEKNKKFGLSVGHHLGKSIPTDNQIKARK

## N.N.[Cl][Pt][Cl] [cisplatin]
C57BL6 female mice [1]
  Numbers of cumulus oocyte complexes released from mice: reduces oocyte yield and 10 and 5 and 6 and 0 and 4 and 9
Oocytes [2]; 1 h after release from IBMX
  Proportion of harvested oocytes achieving germinal vesicle breakdown: 43 % of total
Oocytes [2]; 2 h after release from IBMX
  Proportion of harvested oocytes achieving germinal vesicle breakdown: 100 % of total
Oocytes [2]; 14 hr following completion of GVBD
  Proportion of harvested oocytes achieving polar body extrusion: 40 % of total
Oocytes [2]; 16 hr following completion of GVBD
  Proportion of harvested oocytes achieving polar body extrusion: 70 % of total
Oocytes [2]; 20 hr following completion of GVBD
  Proportion of harvested oocytes achieving polar body extrusion: 85 % of total
C57BL6 females [3]
  Oocyte yield: 6 and 5 (2×) and 2 and 4

## O=c1c(O)c(-c2ccc(O)c(O)c2)oc2cc(O)cc(O)c12 [quercetin, 2-(3,4-dihydroxyphenyl)-3,5,7-trihydroxy-4H-chromen-4-one]
CD38
  Inhibition of CD38 activity: inhibitors of CD38 activity in vitro

## CC1(C)CCC2=C(O1)c1ccccc1C(=O)C2=O [β-lapachone, 3,4-dihydro-2,2-dimethyl-2H-napthol[1,2-b]pyran-5,6-dione]
[4]
  Effect on NQ01: activates the enzyme NADH:quinone oxidoreductase (NQ01)

## O=c1cc(-c2ccc(O)cc2)oc2cc(O)cc(O)c12 [apigenin, 5,7-dihydroxy-2-(4-hydroxyphenyl)-4H-1-benzopyran-4-one]
CD38
  Inhibition of CD38 activity: inhibitors of CD38 activity in vitro

## COc1cccc2c1C(=O)c1c(O)c3c(c(O)c1C2=O)C[C@@](O)(C(=O)CO)C[C@@H]3O[C@H]1C[C@H](N)[C@H](O)[C@H](C)O1 [Dox, doxorubicin]
C57BL6 female mice [5]
  Numbers of cumulus oocyte complexes released from mice: 1 and 8 and 9 and 3 and 6 and 7 and 5
Oocytes [6]; 1 h after release from IBMX
  Proportion of harvested oocytes achieving germinal vesicle breakdown: 19 % of total
Oocytes [6]; 2 h after release from IBMX
  Proportion of harvested oocytes achieving germinal vesicle breakdown: 92 % of total
Oocytes [6]; 14 hr following GVBD
  Proportions of oocytes achieving polar body extrusion: 21
Oocytes [6]; 16 hr following GVBD
  Proportions of oocytes achieving polar body extrusion: 52
Oocytes [6]; 20 hr following GVBD
  Proportions of oocytes achieving polar body extrusion: 81
C57BL6 female mice [7]; Round 0
  Number of mating rounds required to achieve pregnancy: 0%
C57BL6 female mice [7]; Round 1
  Number of mating rounds required to achieve pregnancy: 60%
C57BL6 female mice [7]; Round 2
  Number of mating rounds required to achieve pregnancy: 90%
C57BL6 female mice [7]; Round 3
  Number of mating rounds required to achieve pregnancy: 90%
C57BL6 female mice [7]; per litter, female C57BL6 mice treated with doxorubicin and/or NMN, mated
  Number of live pups born per litter: strong reduction
[8]; NMNAT1-Tg mice
  Oocyte yield following doxorubicin treatment: 13 (2×) and 12 and 11 and 15 and 10 (2×) and 18
[8]; wild-type mice
  Oocyte yield following doxorubicin treatment: 1 (2×) and 4 (2×) and 2 and 7 and 9 (2×) and 3
C57BL6 females [9]
  Primordial follicle numbers in ovarian histology sections: 34 and 50 and 49 and 41

## OC(CNc1ccccc1)Cn1c2ccc(Br)cc2c2cc(Br)ccc21 (stereo not shown) [P7C3]
NAMPT
  Effect on NAMPT activity: enhances activity of NAMPT in vitro
